pEC50, pIC50: −log10 of the molar value. “Also recorded” adds a separate entry of the source. Like-named read-outs stand apart in the source and are kept apart here.
Columns and labels:
[1] = target: T1, DENV2 NS2B-CLuc-NS3-119-NLuc-NS3 120-to-NS3_C (N2CN3N) (UniProt P08659+P14340); format: biochemical; conditions: for suppression of NPGB-induced SLC enhancement / effect of compound alone on background SLC: compound 40 μM; for suppression of NPGB-induced SLC enhancement: N2CN3N 150 nM; for effect of compound alone on background SLC: no NPGB, compared to DMSO; for inhibition of NPGB-induced SLC enhancement, concentration series: serial dilution of compound
T1 construct: pairs of primers of 1394F and 1440C for NS2B and 1476F and 1660C for NS3; made in house; host or cells: Escherichia coli Rosetta 2(DE3)

N2CN3N A125C mutant = target: T2, N2CN3N A125C mutant (UniProt P08659+P14340); format: biochemical
T2 construct: pairs of primers of 1394F and 1440C for NS2B and 1476F and 1660C for NS3; made in house; host or cells: Escherichia coli Rosetta 2(DE3)

N2CN3N A125W mutant = target: T3, N2CN3N A125W mutant (UniProt P08659+P14340); format: biochemical; conditions: A125W mutant 150 nM, NPGB 30 μM
T3 construct: pairs of primers of 1394F and 1440C for NS2B and 1476F and 1660C for NS3; made in house; host or cells: Escherichia coli Rosetta 2(DE3)

[2] = target: T4, full-length firefly luciferase (FLuc) (Photinus pyralis, UniProt P08659); format: biochemical; conditions: FLuc 150 nM, compound 30 μM
T4 construct: or full length Firefly luciferase (150 nM final concentration)

DENV2 [3] = conditions: for DENV2 viral production (titer) relative to DMSO control: compound at 1, 10 and 100 μM, 48 h post-infection
in vitro = conditions: human
DENV2 [4] = assay: microbe, parasite or virus in culture; conditions: Dengue virus, A549, 48 h, read-out: EC50, DENV2 viral reduction
[5] = target: T5, unlinked ZIKV NS2B/NS3 protease (Zika virus, UniProt A0A024B7W1); assay: ZIKV unlinked NS2B/NS3 protease inhibition assay; format: biochemical; conditions: protease 150 nM
T5 construct: The construct contains the NS2B residues 49–95 and the NS3 residues 1–185; made in house; host or cells: E. coli (Rosetta 2(DE3))
Description: As flavivirus NS3 is highly conserved (Fig 3C), it is possible that the inhibitors identified are broad spectrum flavivirus inhibitors. We therefore investigated whether NSC135618 is effective against other flaviviruses. Because ZIKV treatment currently has the most urgent need, we evaluated the efficacy of the compound on ZIKV. To this end, we first constructed an unlinked NS2B/NS3 heterocomplex of ZIKV in the pET28a vector by engineering a 3C protease cleavage site within the GGGSGGGG linker region between NS2B and NS3. The NS2B/NS3 protease was first expressed as a His-tagged covalently linked single chain protein in E coli. The unlinked ZIKV NS2B/NS3 protease complex was generated by on-column digestion with thrombin and 3C proteases, followed by gel filtration chromatography.
Fig 7 Inhibition of the ZIKV protease activity, viral titer, protein expression, and viral RNA replication by NSC135618. […] ST, molecular weight (MW) standard. (B) Dose response inhibition of the unlinked ZIKV NS2B-NS3 protease by NSC135618. The NS2b/NS3 protease was at 150 nM. N = 3. (C) Dose-dependent inhibition of ZIKV by NSC135618 in A549 cells. Viral plaque reduction assay was used. N = 3. (D) Immunofluorescence assay (IFA) of inhibition of viral protein expression for ZIKV-infected A549 cells by NSC135618, using pan flavivirus anti-E antibody 4G2. […]

ZIKV [6] = assay: microbe, parasite or virus in culture; format: cell-based; conditions: HPECs, MOI 2
ZIKV [7] = assay: microbe, parasite or virus in culture; format: cell-based; conditions: hNPCs, MOI 2
unlinked DENV2 NS2B/NS3 = target: T6, unlinked DENV2 NS2B/NS3 (Dengue virus type 2, UniProt P14340); assay: Protein thermal shift assay (PTSA), unlinked DENV2 NS2B/NS3; format: binding; conditions: unlinked NS2B/NS3 2.5 μM, compound 4.8 μM
T6 construct: pairs of primers of 1394F and 1440C for NS2B and 1476F and 1660C for NS3; made in house; host or cells: Escherichia coli Rosetta 2(DE3)
Description: N = 3. […] N = 3. […] PP, ZIKV polyprotein precursor. **, p<0.05.

[8] = target: T7, DENV2 NS2B-NS3 K74A mutant (Dengue virus type 2, UniProt P14340, K1549A); format: binding
[9] = target: T8, DENV2 NS2B-NS3 I123A mutant (Dengue virus type 2, UniProt P14340, I1598A); format: binding
[10] = target: T9, DENV2 NS2B-NS3 N152A mutant (Dengue virus type 2, UniProt P14340, N1627A); format: binding
[11] = target: T10, DENV2 NS2B-NS3 V154A mutant (Dengue virus type 2, UniProt P14340, V1629A); format: binding
[12] = target: T7, DENV2 NS2B-NS3 K74A mutant; format: biochemical; conditions: compound 6 μM, protein 150 nM, vs DMSO
[13] = target: T8, DENV2 NS2B-NS3 I123A mutant; format: biochemical; conditions: compound 6 μM, protein 150 nM, vs DMSO
[14] = target: T10, DENV2 NS2B-NS3 V154A mutant; format: biochemical; conditions: compound 6 μM, protein 150 nM, vs DMSO
[15] = target: T9, DENV2 NS2B-NS3 N152A mutant; format: biochemical; conditions: compound 6 μM, protein 150 nM, vs DMSO
ZIKV [16] = conditions: A549 cells
WNV [17] = tested on: WNV
YFV [18] = tested on: YFV
ZIKV [19] = assay: microbe, parasite or virus in culture; conditions: Zika virus, A549, 48 h, read-out: EC50, ZIKV viral reduction
WNV [20] = assay: microbe, parasite or virus in culture; conditions: West Nile virus, A549, 48 h, read-out: EC50, WNV viral reduction
YFV [21] = assay: microbe, parasite or virus in culture; conditions: Yellow fever virus, A549, 48 h, read-out: EC50, YFV viral reduction
[22] = tested on: ZIKV NS3 / polyprotein precursor; assay: Western blot of ZIKV NS3 expression and polyprotein processing in infected A549 cells
[23] = protein 2.5 μM, compound 4.8 μM

T4 sequence (P08659 whole entry): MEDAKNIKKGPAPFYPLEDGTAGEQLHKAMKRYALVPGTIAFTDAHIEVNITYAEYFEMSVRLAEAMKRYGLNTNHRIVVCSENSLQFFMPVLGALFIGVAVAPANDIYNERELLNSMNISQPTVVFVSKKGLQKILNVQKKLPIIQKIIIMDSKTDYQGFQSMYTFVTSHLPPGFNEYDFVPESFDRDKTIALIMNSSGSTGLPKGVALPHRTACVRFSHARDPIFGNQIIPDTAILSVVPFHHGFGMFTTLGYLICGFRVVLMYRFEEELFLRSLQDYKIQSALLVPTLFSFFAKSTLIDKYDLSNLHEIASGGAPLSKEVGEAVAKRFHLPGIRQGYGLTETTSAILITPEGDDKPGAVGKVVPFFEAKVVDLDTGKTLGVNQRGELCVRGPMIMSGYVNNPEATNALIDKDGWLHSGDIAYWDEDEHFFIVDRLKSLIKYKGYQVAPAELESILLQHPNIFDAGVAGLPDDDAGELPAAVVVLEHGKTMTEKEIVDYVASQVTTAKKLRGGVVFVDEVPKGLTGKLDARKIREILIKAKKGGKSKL
T1 sequence (P08659 whole entry, looked up, other chains not shown): as the sequence (P08659 whole entry) above

## Nitrophenyl p-guanidinobenzoate [NPGB]
[1]; WT N2CN3N 150 nM, NPGB 30 μM
  SLC enhancement compared to DMSO control: 4.2 fold
N2CN3N A125C mutant; A125C mutant 150 nM, NPGB 30 μM
  SLC enhancement compared to DMSO control: 2.2 fold
N2CN3N A125W mutant
  SLC enhancement upon addition of active-site inhibitor: SLC enhancement was not observed
[2]
  effect on luciferase activity of full-length FLuc: do not affect the luciferase activity; also recorded: did not have any effects

## O=C(Nc1ccc(Nc2ccncc2)cc1)c1ccc(Nc2ccnc3ccc([N+](=O)[O-])cc23)cc1 [NSC146771]
[1]; NPGB 30 μM
  suppression of NPGB-induced SLC enhancement: abolish the SLC enhancement induced by NPGB to the background level
  inhibition of NPGB-induced SLC enhancement, concentration series: did not inhibit the NPGB-induced SLC enhancement until very high concentration
[1]
  effect of compound alone on background SLC: did not have significant effect on background SLC
DENV2 [3]; A549 cells
  DENV2 viral production (titer) relative to DMSO control: no appreciable effect; also recorded: did not show any inhibition
In vitro
  CC50: 82 µM
DENV2 [4]
  pEC50: < 4.00

## O=C(O)c1cc(SSc2ccc([N+](=O)[O-])c(C(=O)O)c2)ccc1[N+](=O)[O-] [DTNB, 5,5'-dithio-bis-[2-nitrobenzoic acid]]
[1]
  effect on NPGB-triggered SLC enhancement of WT N2CN3N: significantly abolished the active site inhibitor NPGB-triggered SLC enhancement
  effect on luciferase (baseline SLC) activity of WT N2CN3N: did not significantly affect the luciferase activity
N2CN3N A125C mutant; DTNB 30 μM alone
  effect on baseline SLC signal of A125C mutant: only slightly decreased the baseline SLC signal
N2CN3N A125C mutant; DTNB 30 μM with NPGB 30 μM
  effect on NPGB-triggered SLC enhancement of A125C mutant: completely abolished the SLC enhancement
[2]
  effect on luciferase activity of full-length FLuc: do not affect the luciferase activity; also recorded: did not significantly affect the luciferase activity

## O=C1C=CC(=NNc2ccc([N+](=O)[O-])cc2Cl)C=C1C(=O)Nc1cccc(Cl)c1 [NSC135618]
[5]
  pIC50: 6.42
[1]; NPGB 30 μM
  suppression of NPGB-induced SLC enhancement: abolish the SLC enhancement induced by NPGB to the background level
  inhibition of NPGB-induced SLC enhancement, concentration series: significantly suppressed the SLC enhancement; also recorded: clearly inhibited the NPGB-induced SLC enhancement in a dose dependent manner
[1]
  effect of compound alone on background SLC: did not have significant effect on background SLC
ZIKV [6]
  ZIKV RNA replication (qRT-PCR): drastically decreased ZIKV RNA replication
  ZIKV protein expression (IFA): drastically decreased
  inhibition of ZIKV (titer): effectively inhibited ZIKV in HPECs in a dose-dependent manner
ZIKV [6]; Zika virus, Epithelial cell, read-out: EC50, ZIKV inhibition in HPECs
  pEC50: 6.00
ZIKV [7]; Zika virus, read-out: EC50, ZIKV inhibition in hNPCs
  pEC50: 5.72
ZIKV [7]
  ZIKV RNA replication (qRT-PCR): considerably reduce
  ZIKV protein expression (IFA): considerably reduce
  reduction of ZIKV titers: considerably reduce ZIKV titers
Unlinked DENV2 NS2B/NS3
  increase of melting temperature (ΔTm) vs DMSO: 4.8 °C
[8]; Fig 10D
  Tm (K74A): 42.19 °C
[8]; [23]
  ΔTm (K74A): 2.48 °C
[9]; Fig 10D
  Tm (I123A): 44.34 °C
[9]; [23]
  ΔTm (I123A): 2.69 °C
[10]; Fig 10D
  Tm (N152A): 53.63 °C
[10]; [23]
  ΔTm (N152A): 0.55 °C
[11]; Fig 10D
  Tm (V154A): 52.09 °C
[11]; [23]
  ΔTm (V154A): 1.75 °C
[12]
  inhibition of protease activity of K74A mutant: retains its inhibition activity
[13]
  inhibition of protease activity of I123A mutant: retains its inhibition activity
[14]
  inhibition of protease activity of V154A mutant: slightly reduced the inhibition activity
[15]
  inhibition of protease activity of N152A mutant: completely abolished the inhibition activity
DENV2 [3]; A549 cells
  DENV2 viral RNA copy numbers (qRT-PCR): greatly reduced viral RNA copy numbers in a dose dependent manner
  DENV2 viral production (titer) relative to DMSO control: significantly reduced
DENV2 [3]; A549 cells, MOI 0.1, 48 h
  EC50, DENV2 viral reduction: low micromolar range
DENV2 [3]; DENV2, A549 cells
  TI (therapeutic index, CC50/EC50): 60
ZIKV [16]
  ZIKV viral protein expression (IFA, anti-E antibody 4G2): greatly reduced viral protein expression
ZIKV [16]; MOI 0.1, 48 h
  EC50, ZIKV viral reduction: low micromolar range
ZIKV [16]; supernatant
  ZIKV viral RNA copy numbers (qRT-PCR): greatly reduced
ZIKV [16]; ZIKV
  TI (therapeutic index, CC50/EC50): 49
WNV [17]
  TI (therapeutic index, CC50/EC50): 38
WNV [17]; A549 cells, MOI 0.1, 48 h
  EC50, WNV viral reduction: low micromolar range
YFV [18]
  EC50, YFV viral reduction: low micromolar range
  TI (therapeutic index, CC50/EC50): 174
In vitro
  CC50: 48.8 µM
DENV2 [4]
  pEC50: 6.09
ZIKV [19]
  pEC50: 6.00
WNV [20]
  pEC50: 5.90
YFV [21]
  pEC50: 6.55
[22]; 0.19 μM to 3 μM
  unprocessed viral polyprotein precursor (high MW band, Western blot): accumulation of high molecular weight (MW) protein
[22]; 0.75 μM to 6 μM, 48 h
  ZIKV NS3 expression (Western blot, normalized to GAPDH): significant inhibition of ZIKV NS3 expression
[22]; 6 μM
  viral protein expression (Western blot): nearly completely suppressed viral protein expression

## Cn1ccc(=Nc2ccc(NC(=O)c3ccc(N=c4ccn(C)c5ccc([N+](=O)[O-])cc45)cc3)cc2)cc1 [NSC260594]
[1]; NPGB 30 μM
  suppression of NPGB-induced SLC enhancement: abolish the SLC enhancement induced by NPGB to the background level
  inhibition of NPGB-induced SLC enhancement, concentration series: did not inhibit the NPGB-induced SLC enhancement until very high concentration
[1]
  effect of compound alone on background SLC: did not have significant effect on background SLC
DENV2 [3]; A549 cells
  DENV2 viral production (titer) relative to DMSO control: significantly reduced
In vitro
  CC50: > 500 µM
DENV2 [4]
  pEC50: 4.87
